Data set [1] addresses Human immunodeficiency virus type 1 integrase (Human immunodeficiency virus 1) (UniProt Q7ZJM1). Kind of data set: Binding affinity to HIV-1 Integrase by FRET assay.
The target is the same in data set [2]. Kind of data set: Inhibition of HIV-1 Integrase at 1:50 protein/compound molar ratio. The conditions noted are these: concentration not given here.
Data set [3] deals with Human immunodeficiency virus 1. The experiment in a line: Antiviral activity against HIV1 infected in human MAGI cells assessed as Tat-mediated reporter gene expression. The class given is functional, organism-based.
The subject of data set [4] is Human immunodeficiency virus 1. Kind of data set: Antiviral activity against HIV1 infected in human H9 cells assessed as extracellular release of viral protein p24 at 12.5 uM added to the medium every 2 days measured after 8 days. The data set is classed as functional. The conditions noted are these: Human immunodeficiency virus 1, H9.
Data set [5] is described as follows: Chemical stability of the compound in presence of trypsin and chymotrypsin mixture at 1 mM after 150 mins by MALDI-TOF MS. Conditions: isolated protein, 2.5 h, 1000 µM. The class given is physicochemical.
Data set [6] relates to Human immunodeficiency virus 1. Kind of data set: Antiviral activity against HIV1 infected in human H9 cells assessed as extracellular release of viral protein p24 at 12.5 uM added to the medium every 2 days. The class given is functional.
The nature of data set [7]: Chemical stability of the compound in presence of trypsin and chymotrypsin mixture at 1 mM after 30 mins by MALDI-TOF MS. The class given is physicochemical. Conditions: isolated protein, 0.5 h, 1000 µM.
The target of data set [8] is Human immunodeficiency virus type 1 integrase (Human immunodeficiency virus 1) (UniProt Q7ZJM1). The experiment in a line: Inhibition of HIV-1 Integrase. The conditions noted are these: concentration not given here.
Human immunodeficiency virus type 1 integrase (Human immunodeficiency virus 1), sequence (Q7ZJM1 as listed by the source): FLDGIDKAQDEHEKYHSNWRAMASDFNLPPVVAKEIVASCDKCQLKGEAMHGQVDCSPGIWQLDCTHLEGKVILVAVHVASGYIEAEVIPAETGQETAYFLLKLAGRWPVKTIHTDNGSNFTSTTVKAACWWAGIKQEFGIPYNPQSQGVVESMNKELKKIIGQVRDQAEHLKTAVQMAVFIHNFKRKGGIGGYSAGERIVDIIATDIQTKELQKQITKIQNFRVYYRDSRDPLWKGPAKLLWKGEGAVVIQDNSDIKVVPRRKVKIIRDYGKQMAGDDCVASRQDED
For data set [9], the system named is Human immunodeficiency virus 1. The experiment in a line: Antiviral activity against HIV1 infected in human H9 cells assessed as extracellular release of viral protein p24 at 12.5 uM after 8 days. The class given is functional, organism-based.

Calls of active or inactive are those of the source. The calls are words filed in the database; no cut-off is given here. Numbered stars: 1 amine (or outer) side, 2 acyl side, 3 side chain; on linkers, the order of the positions; unused ones are H or OH. Bridge positions count the residues as written; N and C are the ends. Square brackets hold non-standard residues; d marks the D form. Peptide text beside a SMILES is read from it. X2 = O=C(c1ccccc1-c1c2ccc(=O)cc-2oc2cc(O)ccc12)N(CCC(=O)[*:1])C(=O)[*:2]; X1 = O=C(c1ccccc1-c1c2ccc(=O)cc-2oc2cc(O)ccc12)N(CC(=O)[*:1])C(=O)[*:2]; N(6-aminohexyl)Gly = O=C(CN(CCCCCCN[*:3])[*:1])[*:2]; NGly(3-aminopropyl) = O=C(CN(CCCN[*:3])[*:1])[*:2]; N(2-Aminoethyl)Gly = O=C(CN(CCN[*:3])[*:1])[*:2]; Nlys = NCCCCNCC(=O)O

The term inhibition denotes the drop in the measured response relative to a control, in per cent. `CC[C@H](C)[C@@H]1NC(=O)[C@H](CCCCN)NC(=O)[C@H](CC(C)C)NC(=O)[C@H](CO)NC(=O)[C@H](CC(N)=O)NC(=O)[C@H](Cc2c[nH]c3ccccc23)NC(=O)CCN(C(=O)c2ccccc2-c2c3ccc(=O)cc-3oc3cc(O)ccc23)C(=O)NCCCCN(CC(N)=O)C(=O)[C@H](C(C)C)NC(=O)[C@H](CC(=O)O)NC(=O)[C@H](CC(C)C)NC(=O)[C@H](CC(N)=O)NC(=O)[C@H](CC(=O)O)NC1=O` (WNSLKIDNLDV[Nlys]-NH2; linker N-12 via X2) yielded an Activity in [1] of 3.1 µM. Moreover, the inhibition in data set [2] turned out to be 65%.

For the compound `CC[C@H](C)[C@@H]1NC(=O)[C@H](CCCCN)NC(=O)[C@H](CC(C)C)NC(=O)[C@H](CO)NC(=O)[C@H](CC(N)=O)NC(=O)[C@H](Cc2c[nH]c3ccccc23)NC(=O)CN(C(=O)c2ccccc2-c2c3ccc(=O)cc-3oc3cc(O)ccc23)C(=O)NCCCCCCN(CC(N)=O)C(=O)[C@H](C(C)C)NC(=O)[C@H](CC(=O)O)NC(=O)[C@H](CC(C)C)NC(=O)[C@H](CC(N)=O)NC(=O)[C@H](CC(=O)O)NC1=O` (WNSLKIDNLDV[N(6-aminohexyl)Gly]-NH2; linker N-12 via X1), the Activity in data set [1] came out at 3.3 µM. Also, the inhibition in [2] was 48%. In addition, the outcome in [3] was inactive.

Take `CC[C@H](C)[C@@H]1NC(=O)[C@H](CCCCN)NC(=O)[C@H](CC(C)C)NC(=O)[C@H](CO)NC(=O)[C@H](CC(N)=O)NC(=O)[C@H](Cc2c[nH]c3ccccc23)NC(=O)CN(C(=O)c2ccccc2-c2c3ccc(=O)cc-3oc3cc(O)ccc23)C(=O)NCCN(CC(N)=O)C(=O)[C@H](C(C)C)NC(=O)[C@H](CC(=O)O)NC(=O)[C@H](CC(C)C)NC(=O)[C@H](CC(N)=O)NC(=O)[C@H](CC(=O)O)NC1=O` (WNSLKIDNLDV[N(2-Aminoethyl)Gly]-NH2; linker N-12 via X1): the Activity in data set [1] was 5.2 µM. Besides, in data set [2], the inhibition was 51%.

As to `CC[C@H](C)[C@@H]1NC(=O)[C@H](CCCCN)NC(=O)[C@H](CC(C)C)NC(=O)[C@H](CO)NC(=O)[C@H](CC(N)=O)NC(=O)[C@H](Cc2c[nH]c3ccccc23)NC(=O)CCN(C(=O)c2ccccc2-c2c3ccc(=O)cc-3oc3cc(O)ccc23)C(=O)NCCN(CC(N)=O)C(=O)[C@H](C(C)C)NC(=O)[C@H](CC(=O)O)NC(=O)[C@H](CC(C)C)NC(=O)[C@H](CC(N)=O)NC(=O)[C@H](CC(=O)O)NC1=O` (WNSLKIDNLDV[N(2-Aminoethyl)Gly]-NH2; linker N-12 via X2), the Activity in data set [1] came to 6.3 µM. Also, in data set [2], the inhibition was found to be 54%.

Regarding `CC[C@H](C)[C@@H]1NC(=O)[C@H](CCCCN)NC(=O)[C@H](CC(C)C)NC(=O)[C@H](CO)NC(=O)[C@H](CC(N)=O)NC(=O)[C@H](Cc2c[nH]c3ccccc23)NC(=O)CCN(C(=O)c2ccccc2-c2c3ccc(=O)cc-3oc3cc(O)ccc23)C(=O)NCCCN(CC(N)=O)C(=O)[C@H](C(C)C)NC(=O)[C@H](CC(=O)O)NC(=O)[C@H](CC(C)C)NC(=O)[C@H](CC(N)=O)NC(=O)[C@H](CC(=O)O)NC1=O` (WNSLKIDNLDV[NGly(3-aminopropyl)]-NH2; linker N-12 via X2), the Activity in data set [1] turned out to be 4 µM. Moreover, in [2], the inhibition is 19%.

Take `CC[C@H](C)[C@@H]1NC(=O)[C@H](CCCCN)NC(=O)[C@H](CC(C)C)NC(=O)[C@H](CO)NC(=O)[C@H](CC(N)=O)NC(=O)[C@H](Cc2c[nH]c3ccccc23)NC(=O)CN(C(=O)c2ccccc2-c2c3ccc(=O)cc-3oc3cc(O)ccc23)C(=O)NCCCN(CC(N)=O)C(=O)[C@H](C(C)C)NC(=O)[C@H](CC(=O)O)NC(=O)[C@H](CC(C)C)NC(=O)[C@H](CC(N)=O)NC(=O)[C@H](CC(=O)O)NC1=O` (WNSLKIDNLDV[NGly(3-aminopropyl)]-NH2; linker N-12 via X1): the Activity in data set [1] is 6.5 µM. For the same compound, in [2], the inhibition stood at 44%.

In [1], `CC[C@H](C)[C@@H]1NC(=O)[C@H](CCCCN)NC(=O)[C@H](CC(C)C)NC(=O)[C@H](CO)NC(=O)[C@H](CC(N)=O)NC(=O)[C@H](Cc2c[nH]c3ccccc23)NC(=O)CCN(C(=O)c2ccccc2-c2c3ccc(=O)cc-3oc3cc(O)ccc23)C(=O)NCCCCCCN(CC(N)=O)C(=O)[C@H](C(C)C)NC(=O)[C@H](CC(=O)O)NC(=O)[C@H](CC(C)C)NC(=O)[C@H](CC(N)=O)NC(=O)[C@H](CC(=O)O)NC1=O` (WNSLKIDNLDV[N(6-aminohexyl)Gly]-NH2; linker N-12 via X2) registered an Activity of 3.8 µM. Moreover, in data set [2], the inhibition turned out to be 48%.

Consider `CC[C@H](C)[C@@H]1NC(=O)[C@H](CCCCN)NC(=O)[C@H](CC(C)C)NC(=O)[C@H](CO)NC(=O)[C@H](CC(N)=O)NC(=O)[C@H](Cc2c[nH]c3ccccc23)NC(=O)CN(C(=O)c2ccccc2-c2c3ccc(=O)cc-3oc3cc(O)ccc23)C(=O)NCCCCN(CC(N)=O)C(=O)[C@H](C(C)C)NC(=O)[C@H](CC(=O)O)NC(=O)[C@H](CC(C)C)NC(=O)[C@H](CC(N)=O)NC(=O)[C@H](CC(=O)O)NC1=O` (WNSLKIDNLDV[Nlys]-NH2; linker N-12 via X1), for which the inhibition at 12.5 µM in [4] is > 90%; in data set [6] (Human immunodeficiency virus 1, H9, 48 h) it was 80%. The Activity in data set [1] is 5 µM; in data set [3], “Dose-dependent effect”. In addition, the inhibition in [2] amounted to 90%. Also, the values for the Stability result in data set [5] and in [7] were “Unstable” and “Stable”, respectively.

In the case of H-WNSLKIDNLDV-OH, the inhibition in data set [8] was 85%; in data set [2], 83%. Moreover, the Activity in [1] is 5.1 µM; in data set [3] it was “Dose-dependent effect”. Further, the outcome in [6] was Active. Further, the Stability result in [7] was “Unstable”. In addition, the outcome in [9] was inactive.

For the origin of these results see ChEMBL document CHEMBL1629412, “Cyclic peptide inhibitors of HIV-1 integrase derived from the LEDGF/p75 protein” (Bioorg Med Chem, 2010).
